In US20130202629A1, “USES OF PHOSPHOLIPID CONJUGATES OF SYNTHETIC TLR7 AGONISTS” (The Regents of the University of California, priority 2010, published 2013):
“And” between values parts separate entries of the source, which are not always exact repeats. Equal entries are not always repeated.

Legend:
A/J mice = assay: Local (BALF) and systemic cytokine induction after intranasal administration; type: in vivo, mouse
Procedure: 1V270 induces local inflammation by pulmonary administration. To study the ability of phospholipid conjugated TLR7 to initiate the local inflammation, 6 to 8-week old female A/J mice were intranasally administered with 1V270 (0.5, 1, 2 or 4 nmol per animal) in 5% DMSO in PBS. Mice were sacrificed two hours after the administration and serum and bronchial lavage fluid (BALF) were collected. The levels of IL-6, IL-12 and TNFα were determined by Luminex beads assay.
A/J mice received 10 nmol/animal 1V270 intranasally and BALF were collected 24, 48, and 72 hours after the administration. 1V270 could induce IL-12 and TNFα up to 48 hours (FIG. 10).
BALF and plasma were collected 24 hours later and cytokine levels determined by multiplex luminex assay.

[1] = Nanoparticle size and stability in PBS (Malvern Zetasizer); type: physicochemical; details: 50 μM or 100 μM
Procedure: 1V270 was dissolved in Phosal 50 PG (Phospholipid Gmbh, Cologne, Germany) to make a 20× concentrated solution. The Phosal 50 PG-1V270 mixture was further diluted (1:19) with nanopure water to make a 5% Phosal 50 PG:water suspension. The suspension was vortexed vigorously and sonicated in a sonicating bath for 10 minutes. The suspension was further sonicated with a probe sonicater (Branson Sonifier Cell Disrupter 185) at 30% power for a total of 30 seconds at 10 second intervals with 10 seconds rest between so as to not overheat the suspension. Finally, the suspension was passed through a 100 nm filter with syringe extruder a total of 10 times back and forth. The final nanoparticles were analyzed with a Malvern Zetasizer to check size distribution. The resulting particles may be referred to as nanoliposomes (a submicron bilayer lipid vesicle) (see Chapter 2 by Mozafari in: Liposomes, Methods in Molecular Biology, vol. 605, V. Weissing (ed.), Humana Press, the disclosure of which is incorporated by reference herein). Nanoliposomes provide more surface area and may increase solubility, bioavailability and targeting.
UV-1V270 particles were diluted in PBS to 50 μM (A) or 100 μM (B) and particle size measured over time. […] The particle size of UV-1V270 in PBS was relatively constant with an average of about 110 nm regardless of concentration.

[2] = tested on: Anthrax Sterne strain spores; type: in vivo, Bacillus anthracis
C57BL/6 mice = assay: In vivo evaluation of adverse effects after OVA plus TLR7 conjugate immunization; details: OVA mixed with conjugate, 10 nmoles per mouse
[3] = tested on: C57BL/6 mice or caspase 1 deficient; assay: Induction of bladder inflammation by intravesical treatment; type: in vivo, mouse; details: intravesical 150 nmoles
Description: C57BL/6 mice or caspase 1 deficient were intravesically treated with 150 nmoles 1V270 or vehicle alone three times at two-day intervals. One set of mice was sacrificed twenty-four hours after the first treatment (FIG. 7). Another set of mice was sacrificed twenty-four hours after the third treatment. […] This inflammation was not detected in the caspase 1 deficient mice.

TLR7 [4] = target: T1, TLR7 (Homo sapiens, UniProt Q9NYK1); assay: Cytokine induction (IL-6, IFNalpha1; Luminex) in human PBMC; type: cell-based; details: 18 hours, IL-6 (FIG. 3A)
T1 sequence (Q9NYK1 27-1049): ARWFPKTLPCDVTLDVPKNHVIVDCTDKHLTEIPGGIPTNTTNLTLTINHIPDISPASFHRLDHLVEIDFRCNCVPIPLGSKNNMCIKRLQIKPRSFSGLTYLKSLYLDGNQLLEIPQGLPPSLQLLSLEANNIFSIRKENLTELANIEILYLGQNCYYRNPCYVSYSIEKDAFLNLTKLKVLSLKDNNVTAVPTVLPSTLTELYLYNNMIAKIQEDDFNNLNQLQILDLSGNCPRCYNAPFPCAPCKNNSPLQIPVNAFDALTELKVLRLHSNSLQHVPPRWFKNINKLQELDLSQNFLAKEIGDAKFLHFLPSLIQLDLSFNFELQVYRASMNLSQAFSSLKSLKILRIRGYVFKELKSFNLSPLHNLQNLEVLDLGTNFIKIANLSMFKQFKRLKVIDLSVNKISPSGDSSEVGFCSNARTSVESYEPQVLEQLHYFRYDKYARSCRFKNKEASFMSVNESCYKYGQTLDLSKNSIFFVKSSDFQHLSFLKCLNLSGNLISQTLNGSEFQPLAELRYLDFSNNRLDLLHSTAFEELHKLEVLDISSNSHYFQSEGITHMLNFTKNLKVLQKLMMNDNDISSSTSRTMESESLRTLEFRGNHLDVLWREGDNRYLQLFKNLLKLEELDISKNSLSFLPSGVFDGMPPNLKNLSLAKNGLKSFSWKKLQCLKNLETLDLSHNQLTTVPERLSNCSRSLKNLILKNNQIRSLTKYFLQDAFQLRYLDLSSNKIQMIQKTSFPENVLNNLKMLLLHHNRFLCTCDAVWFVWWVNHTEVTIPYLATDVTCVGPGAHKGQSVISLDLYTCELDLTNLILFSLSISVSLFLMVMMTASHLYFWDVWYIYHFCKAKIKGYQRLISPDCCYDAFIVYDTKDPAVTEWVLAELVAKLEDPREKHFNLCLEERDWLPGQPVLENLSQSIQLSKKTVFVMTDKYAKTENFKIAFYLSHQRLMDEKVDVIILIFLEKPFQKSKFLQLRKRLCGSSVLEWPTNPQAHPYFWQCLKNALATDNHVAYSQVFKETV

Solubility = type: physicochemical
TLR7 [5] = assay: IL-12 and IL-6 induction in BMDM from wild type and TLR7 deficient mice; type: cell-based, mouse; details: BMDM from TLR7 deficient (TLR7-KO) mice

## CCCCCCCC/C=C\CCCCCCCC(=O)OCC(COP(=O)(O)OCCNC(=O)c1ccc(Cn2c(=O)[nH]c3c(N)nc(OCCOC)nc32)cc1)OC(=O)CCCCCCC/C=C\CCCCCCCC (stereo not shown) [Compound 6, 2-(4-((6-amino-2-(2-methoxyethoxy)-8-oxo-7H-purin-9(8H)-yl)methyl)benzamido)ethyl 2,3-bis(oleoyloxy)propyl phosphate]
A/J mice; i.n. 10 nmol/animal
  persistence of IL-12 and TNFα induction in BALF: up to 48 hours
A/J mice; i.n. 2 to 4 nmol in 5% DMSO in PBS, two hours after administration
  local proinflammatory cytokines (IL-6, IL-12, TNFα) in BALF: induced local proinflammatory cytokines in the BALF
A/J mice; i.n., BALF and plasma 24 hours later
  localized versus systemic cytokine release: promoted localized cytokine release with minimal systemic side effects
A/J mice; i.n., two hours after administration
  BALF cytokine levels compared with serum: higher than those in the serum
[1]
  nanoparticle stability over time: generally stable over time
[1]; regardless of concentration
  particle size, average diameter: about 110 nm
[2]; IRS mixed with 1 nmol, i.n. three times at two week intervals, challenge four weeks later
  survival on day 30, long term experiment: 100%
[2]; IRS with 1 nmol, single vaccination, challenge six days later
  survival on day 15, short term experiment: More than half
[2]; adjuvant with IRS
  effective dose, unformulated in DMSO: 1 nmol
[2]; in vivo
  efficacy compared with cholera toxin (CT) as adjuvant: slightly more effective than mice that received CT as an adjuvant
[2]; mucosal immunization with killed anthrax spores
  protection from pulmonary anthrax infection: completely protected mice from pulmonary anthrax infection
[2]; splenocytes of surviving mice cultured with IRS for 5 days
  spore-specific cellular immune responses: induced spore-specific Th1 and Th17 cellular immune responses
C57BL/6 mice
  average body weights versus mice injected saline: No significant differences
[3]; C57BL/6 mice, three times at two-day intervals
  bladder inflammation (mononuclear cell infiltration): infiltration of mononuclear cells were observed and increased after the third treatment
[3]; caspase 1 deficient mice
  bladder inflammation in caspase 1 deficient mice: not detected
TLR7 [4]
  order of TLR7 conjugate potency: (4b)>(6)>(9)>/=SM>(8) and 4b>6>9>SM=8
Solubility; aqueous solution / suitable solvents for testing
  solubility, in words: difficulty in dissolution
Solubility; in PBS
  upper limit of solubility: ~100 µM
TLR7 [5]
  IL-12 and IL-6 induction in TLR7 deficient BMDM: little or no IL-12 and IL-6
